Patent US8815872B2, “Macrocyclics pyrimidines as aurora kinase inhibitors” (Merck Patent GmbH, priority 2008, dated 2014)

Tests used:
[1] = system: MiaPaca2; assay: Cellular activity MiaPaca2; assay type: cell-based; conditions: Homo sapiens, MIA PaCa-2
Summary of the method: (§1)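 Cultured cells were exposed to compounds at various concentrations for roughly one hour to one week, enough to induce cell death or inhibit migration. Viable cells remaining after treatment were then counted.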

[2] = biological target: Aurora B (Homo sapiens, UniProt Q96GD4); assay: Aurora B enzyme assay (Caliper); assay type: biochemical
Sequence of Aurora B (Q96GD4 whole entry): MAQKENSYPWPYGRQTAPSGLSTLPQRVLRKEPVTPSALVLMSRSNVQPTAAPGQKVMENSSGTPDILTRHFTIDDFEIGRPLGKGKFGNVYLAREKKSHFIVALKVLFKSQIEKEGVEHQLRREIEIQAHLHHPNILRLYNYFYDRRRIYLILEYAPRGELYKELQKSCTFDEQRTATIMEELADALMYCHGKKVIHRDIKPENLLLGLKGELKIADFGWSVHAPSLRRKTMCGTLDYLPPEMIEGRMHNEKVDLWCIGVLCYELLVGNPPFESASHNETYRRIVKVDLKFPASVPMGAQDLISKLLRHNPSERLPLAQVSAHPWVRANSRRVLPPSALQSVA
Summary of the method: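 Kinase activity was measured by microfluidic mobility-shift separation of phosphorylated and unphosphorylated fluorescently labelled substrate peptide at the end of the enzymatic reaction. Product and substrate were resolved by their charge difference and detected by fluorescence.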

[3] = biological target: T1, Aurora A (Homo sapiens, UniProt O14965); assay: Aurora A enzyme assay (Caliper LC3000 mobility shift); assay type: biochemical
T1 construct: N-terminal GST fusion with full length Aurora A (1-403 amino acids); purchased Carna Biosciences 05-101
T1 sequence (O14965 1-403): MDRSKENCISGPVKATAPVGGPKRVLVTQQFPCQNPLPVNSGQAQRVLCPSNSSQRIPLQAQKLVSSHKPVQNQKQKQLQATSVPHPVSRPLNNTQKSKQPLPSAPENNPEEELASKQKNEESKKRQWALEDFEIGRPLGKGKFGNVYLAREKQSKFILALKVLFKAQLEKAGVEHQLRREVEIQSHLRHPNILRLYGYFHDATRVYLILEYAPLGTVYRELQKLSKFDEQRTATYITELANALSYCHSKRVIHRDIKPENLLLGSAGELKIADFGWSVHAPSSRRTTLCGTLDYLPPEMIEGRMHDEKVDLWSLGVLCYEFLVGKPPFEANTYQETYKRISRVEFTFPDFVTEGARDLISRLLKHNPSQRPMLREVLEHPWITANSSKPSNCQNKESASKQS
Summary of the method: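 Full-length N-terminal GST-Aurora A (0.067 ng/µl) with 15 µM ATP and 1 µM FITC-LRRASLG peptide in 100 mM HEPES pH 7.5, 1 mM MgCl2, 1 mM DTT, 0.015% Brij-35, 90 min at 25 °C, EDTA-stopped. Off-chip mobility shift measured percent substrate conversion; IC50 from sigmoidal dose-response fit.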

[4] = biological target: kinases (not incl. Aurora); assay: Kinase inhibition profile (not incl. Aurora); assay type: biochemical; conditions: at 1 μM; hit means >79% inhibition
Description: (§2) The Aurora and other kinase assays described here were performed on two Caliper Life Sciences systems, the LC3000 and the Desktop Profiler. These provide data on enzyme activity via measurement of the relative amounts of phosphorylated or unphosphorylated fluorescently labelled substrate peptide at the end of an enzymatic reaction. These different states of peptide are resolved by applying a potential difference across the sample. The presence of a charged phosphate group on the product (as opposed to the substrate) causes a different peptide mobility between the two peptides. This is visualized by excitation of a fluorescent label on the substrate and product peptides and represented as peaks within the analysis software.
The Desktop Profiler utilizes the same principal as the LC 3000 for calculating percentage conversion of a substrate to product. Caliper Life Sciences provided proprietary flash frozen pre-made 384 well plates containing selected kinases. Each column in the 384 well plate contained a particular selected kinase. A second plate, the ‘substrate plate’ contained a mix of fluorescently labeled peptide substrate and ATP. These were arranged in columns so that transfer for substrate plate to enzyme plate provided the correct enzyme with the correct substrate/ATP concentration.
Compounds were added to a thawed enzyme plate in the desired format, in single concentrations. Reactions were initiated by transfer of the ubstrate/ATP mix from the substrate plate. The enzyme plate was incubated for 90 mins at 25 °C. The reaction was stopped by addition of […] of Stop Buffer (100 mM HEPES pH 7.5, 0.015% Brij-35, 10 mM EDTA (Sigma, E7889)).
Plates were read in a manner identical to that of the LC3000, and the ratio between substrate and product peaks provided the activity of the enzyme in that well. This was best represented by a plate heat map which colors each well by percent inhibition as compared to positive and negative controls (no inhibitors and no ATP respectively).

[5] = system: A549; assay: Cellular activity A549; assay type: cell-based; conditions: Homo sapiens
Summary of the method: as §1

[6] = from NC(=O)[C@H]1[C@@H]2CC(CNCc3cccc(N)c3)[C@@H](C2)[C@H]1Nc1nc(Cl)ncc1F; snar bond
[7] = biological target: T2, Ret(h) (Homo sapiens, UniProt P07949); assay: Inhibition of other kinases IC50 (Table 2); assay type: biochemical
T2 construct: purchased Caliper Life Sciences
T2 sequence (P07949 29-1114): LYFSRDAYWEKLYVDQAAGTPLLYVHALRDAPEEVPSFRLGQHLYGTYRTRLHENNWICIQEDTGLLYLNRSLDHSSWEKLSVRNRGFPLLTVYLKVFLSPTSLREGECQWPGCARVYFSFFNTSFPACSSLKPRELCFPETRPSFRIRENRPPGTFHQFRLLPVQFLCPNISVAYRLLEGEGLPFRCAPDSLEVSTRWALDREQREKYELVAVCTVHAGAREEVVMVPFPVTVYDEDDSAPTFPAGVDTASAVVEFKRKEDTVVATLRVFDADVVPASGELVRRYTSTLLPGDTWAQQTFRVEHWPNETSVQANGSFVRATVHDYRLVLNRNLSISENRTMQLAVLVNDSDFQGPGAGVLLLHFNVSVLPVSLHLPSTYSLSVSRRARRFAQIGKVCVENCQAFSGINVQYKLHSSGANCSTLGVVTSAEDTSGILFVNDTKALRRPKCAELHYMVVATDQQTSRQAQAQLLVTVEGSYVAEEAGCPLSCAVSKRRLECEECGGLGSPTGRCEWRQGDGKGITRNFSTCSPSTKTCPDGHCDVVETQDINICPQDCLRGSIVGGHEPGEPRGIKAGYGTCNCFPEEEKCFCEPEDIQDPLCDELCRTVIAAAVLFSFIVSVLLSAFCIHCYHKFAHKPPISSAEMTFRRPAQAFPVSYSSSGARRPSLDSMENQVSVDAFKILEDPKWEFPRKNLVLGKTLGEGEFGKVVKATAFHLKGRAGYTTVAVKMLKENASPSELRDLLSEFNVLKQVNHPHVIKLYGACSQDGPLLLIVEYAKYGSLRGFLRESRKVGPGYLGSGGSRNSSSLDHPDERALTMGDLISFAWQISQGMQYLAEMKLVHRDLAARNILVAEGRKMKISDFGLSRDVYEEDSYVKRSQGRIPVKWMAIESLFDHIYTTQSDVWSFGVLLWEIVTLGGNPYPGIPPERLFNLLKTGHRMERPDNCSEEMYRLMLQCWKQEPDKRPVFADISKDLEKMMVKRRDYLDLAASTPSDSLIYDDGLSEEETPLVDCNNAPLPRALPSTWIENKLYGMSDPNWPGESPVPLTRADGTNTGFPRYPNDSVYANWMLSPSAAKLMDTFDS
Description: as §2

[8] = biological target: T3, FAK(h) (Homo sapiens, UniProt Q05397); assay: Inhibition of other kinases IC50 (Table 2); assay type: biochemical
T3 construct: purchased Caliper Life Sciences
T3 sequence (Q05397 whole entry): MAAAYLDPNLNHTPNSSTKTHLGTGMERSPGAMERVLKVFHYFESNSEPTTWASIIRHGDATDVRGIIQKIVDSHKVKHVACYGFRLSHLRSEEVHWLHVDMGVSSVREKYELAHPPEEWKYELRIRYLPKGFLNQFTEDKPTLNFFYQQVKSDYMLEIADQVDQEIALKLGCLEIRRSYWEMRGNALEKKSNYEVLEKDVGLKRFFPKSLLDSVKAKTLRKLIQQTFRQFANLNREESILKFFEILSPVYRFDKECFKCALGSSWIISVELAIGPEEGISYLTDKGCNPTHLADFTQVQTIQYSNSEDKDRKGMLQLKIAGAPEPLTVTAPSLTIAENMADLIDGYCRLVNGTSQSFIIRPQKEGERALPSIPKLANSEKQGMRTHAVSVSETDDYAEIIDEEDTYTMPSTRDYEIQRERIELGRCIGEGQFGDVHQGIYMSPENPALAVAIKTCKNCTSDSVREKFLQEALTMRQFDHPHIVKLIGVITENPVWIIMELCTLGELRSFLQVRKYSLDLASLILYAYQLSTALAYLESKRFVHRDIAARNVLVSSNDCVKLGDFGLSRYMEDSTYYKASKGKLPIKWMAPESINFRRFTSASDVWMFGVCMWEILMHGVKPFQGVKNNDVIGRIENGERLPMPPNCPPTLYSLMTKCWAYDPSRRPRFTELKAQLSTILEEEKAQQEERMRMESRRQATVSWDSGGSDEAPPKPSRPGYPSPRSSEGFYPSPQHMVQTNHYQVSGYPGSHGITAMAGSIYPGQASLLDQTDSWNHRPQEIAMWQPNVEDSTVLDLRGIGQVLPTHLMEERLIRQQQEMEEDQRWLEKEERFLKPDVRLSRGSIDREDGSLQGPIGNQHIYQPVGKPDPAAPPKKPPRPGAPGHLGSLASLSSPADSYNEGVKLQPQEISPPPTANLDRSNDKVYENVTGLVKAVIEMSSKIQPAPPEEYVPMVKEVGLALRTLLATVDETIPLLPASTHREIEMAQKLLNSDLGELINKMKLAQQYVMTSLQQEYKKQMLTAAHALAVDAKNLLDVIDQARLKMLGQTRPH
Description: as §2

[9] = biological target: T4, IRAK4(h) (Homo sapiens, UniProt Q9NWZ3); assay: Inhibition of other kinases IC50 (Table 2); assay type: biochemical
T4 construct: purchased Caliper Life Sciences
T4 sequence (Q9NWZ3 1-460): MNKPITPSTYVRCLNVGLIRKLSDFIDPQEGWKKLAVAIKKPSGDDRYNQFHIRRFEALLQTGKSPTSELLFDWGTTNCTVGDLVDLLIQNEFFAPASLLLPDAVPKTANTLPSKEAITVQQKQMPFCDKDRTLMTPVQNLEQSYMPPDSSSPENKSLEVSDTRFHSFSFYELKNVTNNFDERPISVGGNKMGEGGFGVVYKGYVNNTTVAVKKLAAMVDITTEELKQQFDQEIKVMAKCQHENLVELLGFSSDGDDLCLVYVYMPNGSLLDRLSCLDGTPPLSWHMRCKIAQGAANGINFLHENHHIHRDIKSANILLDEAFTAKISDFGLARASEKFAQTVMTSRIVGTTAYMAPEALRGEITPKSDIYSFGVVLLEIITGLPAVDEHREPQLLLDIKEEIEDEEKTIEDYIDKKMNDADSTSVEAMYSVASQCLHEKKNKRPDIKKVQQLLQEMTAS
Description: as §2

[10] = biological target: T5, Pyk2(h) (Homo sapiens, UniProt Q14289); assay: Inhibition of other kinases IC50 (Table 2); assay type: biochemical
T5 construct: purchased Caliper Life Sciences
T5 sequence (Q14289 whole entry): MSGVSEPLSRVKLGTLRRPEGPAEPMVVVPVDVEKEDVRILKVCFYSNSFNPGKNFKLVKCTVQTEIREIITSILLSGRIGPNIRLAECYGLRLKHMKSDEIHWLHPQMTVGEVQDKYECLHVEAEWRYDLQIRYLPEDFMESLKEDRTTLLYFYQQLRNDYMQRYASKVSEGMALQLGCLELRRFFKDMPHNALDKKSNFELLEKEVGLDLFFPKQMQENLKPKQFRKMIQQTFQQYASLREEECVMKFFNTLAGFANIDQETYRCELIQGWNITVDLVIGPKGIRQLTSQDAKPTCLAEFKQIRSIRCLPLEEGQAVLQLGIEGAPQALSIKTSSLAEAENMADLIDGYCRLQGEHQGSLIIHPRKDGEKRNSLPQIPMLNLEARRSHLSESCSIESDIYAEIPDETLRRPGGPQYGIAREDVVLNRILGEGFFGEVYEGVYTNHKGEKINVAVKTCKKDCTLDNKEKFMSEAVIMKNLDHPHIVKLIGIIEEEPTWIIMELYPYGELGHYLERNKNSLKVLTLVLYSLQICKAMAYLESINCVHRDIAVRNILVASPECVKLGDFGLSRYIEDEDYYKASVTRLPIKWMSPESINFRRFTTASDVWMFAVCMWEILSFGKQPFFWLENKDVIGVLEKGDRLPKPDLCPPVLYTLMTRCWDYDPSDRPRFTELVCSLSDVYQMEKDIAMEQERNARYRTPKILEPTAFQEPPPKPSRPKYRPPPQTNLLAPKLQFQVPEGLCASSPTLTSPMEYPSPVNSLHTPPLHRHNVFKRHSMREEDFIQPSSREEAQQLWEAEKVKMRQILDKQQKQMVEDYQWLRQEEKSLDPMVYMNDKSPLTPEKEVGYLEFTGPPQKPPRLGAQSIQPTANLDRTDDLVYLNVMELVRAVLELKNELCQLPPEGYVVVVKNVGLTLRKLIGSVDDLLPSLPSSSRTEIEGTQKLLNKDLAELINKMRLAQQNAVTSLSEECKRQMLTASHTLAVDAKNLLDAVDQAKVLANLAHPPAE
Description: as §2

[11] = biological target: T6, Tie2(h) (Homo sapiens, UniProt Q02763); assay: Inhibition of other kinases IC50 (Table 2); assay type: biochemical
T6 construct: purchased Caliper Life Sciences
T6 sequence (Q02763 23-1124): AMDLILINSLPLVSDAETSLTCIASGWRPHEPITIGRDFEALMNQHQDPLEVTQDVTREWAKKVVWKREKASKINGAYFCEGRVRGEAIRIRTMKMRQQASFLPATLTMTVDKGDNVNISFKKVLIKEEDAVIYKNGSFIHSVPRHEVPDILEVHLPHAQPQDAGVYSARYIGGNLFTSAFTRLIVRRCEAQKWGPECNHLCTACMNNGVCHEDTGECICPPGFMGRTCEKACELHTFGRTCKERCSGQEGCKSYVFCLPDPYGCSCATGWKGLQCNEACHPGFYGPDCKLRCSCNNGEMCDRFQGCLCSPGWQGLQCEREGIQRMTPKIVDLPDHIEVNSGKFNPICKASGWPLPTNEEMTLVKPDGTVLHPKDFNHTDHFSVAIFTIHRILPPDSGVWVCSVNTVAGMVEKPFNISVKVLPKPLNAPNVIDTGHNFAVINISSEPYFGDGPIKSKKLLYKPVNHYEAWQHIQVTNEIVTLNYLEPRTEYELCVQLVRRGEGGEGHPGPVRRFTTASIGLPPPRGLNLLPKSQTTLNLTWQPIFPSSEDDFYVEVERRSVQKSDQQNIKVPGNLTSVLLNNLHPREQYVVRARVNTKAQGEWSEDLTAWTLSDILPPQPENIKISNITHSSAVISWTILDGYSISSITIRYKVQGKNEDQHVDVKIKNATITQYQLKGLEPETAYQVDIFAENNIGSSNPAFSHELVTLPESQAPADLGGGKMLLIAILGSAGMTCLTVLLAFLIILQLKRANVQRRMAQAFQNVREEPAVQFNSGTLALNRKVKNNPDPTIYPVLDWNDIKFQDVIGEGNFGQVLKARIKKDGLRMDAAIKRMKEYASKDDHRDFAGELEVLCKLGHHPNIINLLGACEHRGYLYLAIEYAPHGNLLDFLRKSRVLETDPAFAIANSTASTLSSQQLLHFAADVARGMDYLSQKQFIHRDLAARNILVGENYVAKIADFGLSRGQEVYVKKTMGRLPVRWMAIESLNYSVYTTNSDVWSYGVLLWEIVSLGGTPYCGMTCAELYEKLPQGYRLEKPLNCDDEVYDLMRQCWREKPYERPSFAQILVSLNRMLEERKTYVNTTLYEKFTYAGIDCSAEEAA
Description: as §2

| Compound | IC50 [1] [nM] | IC50 [2] [nM] | IC50 [3] [nM] | Kinase Inhibition Profile (not incl. Aurora) # kinases hit/# kinases tested [4] | IC50 [5] [nM] | ring closure, yield of all isomers [6] [%] | IC50 [7] [nM] | IC50 [8] [nM] | IC50 [9] [nM] | IC50 [10] [nM] | IC50 [11] [nM] |
| --- | --- | --- | --- | --- | --- | --- | --- | --- | --- | --- | --- |
| NC(=O)[C@H]1[C@@H]2CC3CNCc4cccc(c4)Nc4ncc(F)c(n4)N[C@@H]1[C@@H]3C2 (some centres unmarked) | 1 to 100 | 1 to 100 | 101 to 1000 | 1/50 at 1 μM | 1 to 100 | 7.6 |  |  |  |  |  |
| NC(=O)[C@H]1[C@H]2C[C@H]3[C@H]1Nc1nc(ncc1F)Nc1cccc(c1)CCS[C@@H]3C2 [Example 18] |  |  |  |  |  |  | 1000 to 6250 | 101 to 1000 | 1 to 100 | 101 to 1000 | 1000 to 6250 |
